Assay results published in US20080057529A1, “Method for Identifying Histone Deacetylase Inhibitors” (priority 2003, published 2008).

What was measured:
CMV promoter [1] = assay: Luc activity of co-transfected pCMV-Luc control plasmid in HeLa cells; type: cell-based, human; conditions: for Fold Ind. RLU: vs DMSO; for RLU norm mean / RLU/μg: Table 5; for RLU/μg: luciferase control plasmid not named
clone 1.17 cells = assay: Growth inhibition, CYTOSTAR 14C-thymidine uptake; type: cell-based; conditions: Homo sapiens, 48 h, read-out: ^14C-thymidine EC50
Procedure: Cells were seeded in a CYTOSTAR-T plate at about 7000 to 10000 cells per well in 100 μL of complete DMEM and incubated 4 hours at 37° C., 5% CO2. Next, 25 μL per well of HDAC inhibitor or DMSO (vehicle control) 5× solutions in complete DMEM was added to the wells along with 5 μL per well of ^14C-thymidine diluted 1:3 in H2O (1.65 μL of thymidine per well, 55 mCi/mmol; 225 μCi/mg; 50 μCi/mL (10 μM final concentration) and incubated at 37° C., 5% CO2. Incorporation of ^14C-thymidine was monitored after 24, 48, and 72 hours by reading the plate in a Packard Instruments TOP-COUNT (CYTOSTAR ^14C method).

CMV promoter [2] = assay: Luc activity of co-transfected pCMV-Luc control plasmid in HeLa cells; type: cell-based, human; conditions: 400 nM, 12 hours
Procedure: (§1) The p21m-BLA reporter plasmid was tested in transient transfection experiments of HeLa cells to evaluate the responsiveness of the minimal p21 promoter and the Bla reporter system to known HDAC inhibitors. In the first two transfection experiments, HeLa cells were transfected with 1 or 2 μg of Bla reporter plasmid containing either p21 minimal promoter (p21m-BLA) or CMV promoter (CMV-BLA) and 0.1 μg of pCMV-Luc or pRSV-Luc control plasmids. Different DNA-FUGENE transfection reagent ratios were tested (FUGENE is available from Roche Applied Science, Indianapolis, Ind.). […] Data are summarized below in Tables 1 and 2.

RSV promoter = assay: Luc activity of co-transfected pRSV-Luc control plasmid in HeLa cells; type: cell-based, human; conditions: Table 2, 400 nM, 12 hours
Procedure: as §1

HeLa cells = conditions: saturating amounts, after 48 hours; cited from earlier work
[3] = Table 3, 2 μg p21m-BLA + 0.1 μg pCMV-Luc, 6 hr treatment, TSA 300 nM, Apicidin 1 μM
[4] = Table 3, 2 μg p21m-BLA + 0.1 μg pCMV-Luc, 12 hr treatment, TSA 300 nM, Apicidin 1 μM
[5] = Table 3, 2 μg p21m-BLA + 0.1 μg pCMV-Luc, 24 hr treatment, TSA 300 nM, Apicidin 1 μM
[6] = Table 3, 2 μg pCMV-BLA + 0.1 μg pCMV-Luc, 6 hr treatment, TSA 300 nM, Apicidin 1 μM
[7] = Table 3, 2 μg pCMV-BLA + 0.1 μg pCMV-Luc, 12 hr treatment, TSA 300 nM, Apicidin 1 μM
[8] = Table 3, 2 μg pCMV-BLA + 0.1 μg pCMV-Luc, 24 hr treatment, TSA 300 nM, Apicidin 1 μM
[9] = Apicidin 1 μM, TSA 300 nM, P21m-SEAP 0 μg DNA
[10] = Apicidin 1 μM, TSA 300 nM, P21m-SEAP 0.1 μg DNA
[11] = Apicidin 1 μM, TSA 300 nM, P21m-SEAP 0.2 μg DNA
[12] = Apicidin 1 μM, TSA 300 nM, P21m-SEAP 0.5 μg DNA
[13] = Apicidin 1 μM, TSA 300 nM, P21m-SEAP 1 μg DNA
[14] = Apicidin 1 μM, TSA 300 nM, P21m-SEAP 2 μg DNA

SMILES | RLU/mg (CMV promoter [1]; [3]) [RLU/mg] | RLU/mg (CMV promoter [1]; [4]) [RLU/mg] | RLU/mg (CMV promoter [1]; [5]) [RLU/mg] | RLU/mg (CMV promoter [1]; [6]) [RLU/mg] | RLU/mg (CMV promoter [1]; [7]) [RLU/mg] | RLU/mg (CMV promoter [1]; [8]) [RLU/mg] | RLU norm mean (CMV promoter [1]; [9]) | RLU/μg (CMV promoter [1]; [9]) | RLU norm mean (CMV promoter [1]; [10]) | RLU/μg (CMV promoter [1]; [10]) | RLU/μg (CMV promoter [1]; [11]) | RLU norm mean (CMV promoter [1]; [12]) | RLU/μg (CMV promoter [1]; [12]) | RLU norm mean (CMV promoter [1]; [13]) | RLU/μg (CMV promoter [1]; [13]) | RLU/μg (CMV promoter [1]; [14]) | further results
CCC(=O)CCCCC[C@@H]1NC(=O)[C@H]2CCCCN2C(=O)[C@H]([C@@H](C)CC)NC(=O)[C@H](Cc2cn(OC)c3ccccc23)NC1=O [Apicidin] | 79723 | 183519 | 131733 | 10937 | 39603.5 | 18932.5 | 1.08 | 102,236.00 RLU/μg | 1.17 | 111,192.67 RLU/μg | 108,052.99 RLU/μg | 0.57 | 54,363.72 RLU/μg | 1.14 | 108,153.75 RLU/μg | 85,172.59 RLU/μg | Fold Ind. RLU (CMV promoter [1]; Table 3, 2 μg p21m-BLA + 0.1 μg pCMV-Luc, 6 hr, TSA 300 nM, Apicidin 1 μM): 3.6 fold; Fold Ind. RLU (CMV promoter [1]; Table 3, 2 μg p21m-BLA + 0.1 μg pCMV-Luc, 12 hr, TSA 300 nM, Apicidin 1 μM): 2.45 fold; Fold Ind. RLU (CMV promoter [1]; Table 3, 2 μg p21m-BLA + 0.1 μg pCMV-Luc, 24 hr, TSA 300 nM, Apicidin 1 μM): 2.9 fold; Fold Ind. RLU (CMV promoter [1]; Table 3, 2 μg pCMV-BLA + 0.1 μg pCMV-Luc, 6 hr, TSA 300 nM, Apicidin 1 μM): 2 fold; Fold Ind. RLU (CMV promoter [1]; Table 3, 2 μg pCMV-BLA + 0.1 μg pCMV-Luc, 12 hr, TSA 300 nM, Apicidin 1 μM): 3.6 fold; Fold Ind. RLU (CMV promoter [1]; Table 3, 2 μg pCMV-BLA + 0.1 μg pCMV-Luc, 24 hr, TSA 300 nM, Apicidin 1 μM): 5.3 fold; RLU norm mean (CMV promoter [1]; [11]): 1.14; RLU norm mean (CMV promoter [1]; [14]): 0.90; EC50 (clone 1.17 cells): 0.41 µM
CC(/C=C/C(=O)NO)=C\[C@@H](C)C(=O)c1ccc(N(C)C)cc1 [TSA, Trichostatin A] | 85379 | 248656.9 | 110180.6 | 12579.8 | 33592.3 | 22233.7 | 0.97 | 94,973.90 RLU/μg | 0.97 | 95,526.00 RLU/μg | 116,091.50 RLU/μg | 0.85 | 83,237.58 RLU/μg | 0.89 | 87,194.70 RLU/μg | 111,592.45 RLU/μg | RLU/mg (CMV promoter [1]; Table 1, 400 nM, 12 hours, 2 μg CMV-BLA + 6 μL F, control plasmid not given): 14934 RLU/mg; RLU/mg (CMV promoter [1]; Table 1, 400 nM, 12 hours, 2 μg p21m-BLA + 6 μL F, control plasmid not given): 50773.9 RLU/mg; RLU/mg (CMV promoter [1]; Table 1, 400 nM, 12 hours, 2 μg p21m-BLA + 10 μL F, control plasmid not given): 22499.2 RLU/mg; RLU/mg (CMV promoter [1]; Table 2, 400 nM, 12 hours, 1 μg CMV-BLA + 3 μL F + CMV-luc): 14928.8 RLU/mg; RLU/mg (CMV promoter [1]; Table 2, 400 nM, 12 hours, 1 μg p21m-BLA + 3 μL F + CMV-luc): 47709.8 RLU/mg; RLU/mg (CMV promoter [2]; Table 1, 1 μg CMV-BLA + 3 μL F, control plasmid not given): 8986 RLU/mg; RLU/mg (CMV promoter [2]; Table 1, 1 μg p21m-BLA + 3 μL F, control plasmid pCMV-Luc or pRSV-Luc, not specified): 52035 RLU/mg; RLU/mg (CMV promoter [2]; Table 1, 1 μg p21m-BLA + 5 μL F, control plasmid not given): 29022.4 RLU/mg; RLU/mg (CMV promoter [2]; Table 2, 2 μg CMV-BLA + 6 μL F + CMV-luc): 13085.6 RLU/mg; RLU/mg (CMV promoter [2]; Table 2, 2 μg p21BLA + 6 μL F + CMV-luc): 105942 RLU/mg; RLU/mg (RSV promoter; 1 μg CMV-BLA + 3 μL F + RSV-luc): 7964.46 RLU/mg; RLU/mg (RSV promoter; 1 μg p21m-BLA + 3 μL F + RSV-luc): 24437.8 RLU/mg; RLU/mg (RSV promoter; 2 μg CMV-BLA + 6 μL F + RSV-luc): 4972 RLU/mg; RLU/mg (RSV promoter; 2 μg p21m-BLA + 6 μL F + RSV-luc): 29989.4 RLU/mg; remission from cell cycle arrest (HeLa cells): complete remission from cell cycle arrest
